# Assay results as given in patent publication US10533010B2, “Substituted indole Mcl-1 inhibitors” (Vanderbilt University, priority 2014, dated 2020).
# pKi: −log10 of the molar value.
# Biological target: recombinant Mcl-1 (residues 172-327) (Homo sapiens (Human), UniProt Q07820)
# Assay: Fluorescence polarization anisotropy competition assay (FITC-Bak or FITC-Bim BH3 peptide) with Mcl-1
# Type: binding
# Conditions: not given
# recombinant Mcl-1 (residues 172-327), sequence (Q07820 172-327): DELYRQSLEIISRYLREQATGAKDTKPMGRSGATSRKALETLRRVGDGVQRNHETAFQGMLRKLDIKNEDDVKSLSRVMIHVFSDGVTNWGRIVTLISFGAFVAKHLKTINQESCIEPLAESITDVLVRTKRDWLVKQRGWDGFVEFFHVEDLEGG
row,SMILES,pKi
1,"COC(=O)CNC(=O)c1[nH]c2ccccc2c1CCCOc1cc(C)c(Cl)c(C)c1 [I-2, methyl (3-(3-(4-chloro-3,5-dimethylphenoxy)propyl)-1H-indole-2-carbonyl)glycinate]",5.00 to 6.00

# Same assay, conditions: Table 2; Ki bins given in nM; FITC-Bak or FITC-Bim peptide competition; Ki converted from IC50; read-out: Ki for Inhibition of Mcl-1
row,SMILES,Ki [nM]
1,"Cc1cc(OCCCc2c3n(c4c(-c5c(C)nn(C)c5C)c(Cl)ccc24)[C@H](C)CN(c2cc(C(=O)O)c4ccn(C)c4c2)C3=O)cc(C)c1Cl [I-174, (R)-6-(7-chloro-10-(3-(4-chloro-3,5-dimethylphenoxy)propyl)-4-methyl-1-oxo-6-(1,3,5-trimethyl-1H-pyrazol-4-yl)-3,4-dihydropyrazino[1,2-a]indol-2(1H)-yl)-1-methyl-1H-indole-4-carboxylic acid]",< 50
2,"Cc1cc(OCCCc2c(C(=O)NCc3ccc(N4CCCCC4)c(C(=O)O)c3)[nH]c3c(-c4c(C)nn(C)c4C)cccc23)cc(C)c1Cl [I-73, 5-((3-(3-(4-chloro-3,5-dimethylphenoxy)propyl)-7-(1,3,5-trimethyl-1H-pyrazol-4-yl)-1H-indole-2-carboxamido)methyl)-2-(piperidin-1-yl)benzoic acid]",301 to 500
3,"COC(=O)c1cccc(N2CCN(C(=O)c3[nH]c4cc(Cl)ccc4c3CCCOc3cc(C)c(Cl)c(C)c3)CC2)c1 [I-52, methyl 3-(4-(6-chloro-3-(3-(4-chloro-3,5-dimethylphenoxy)propyl)-1H-indole-2-carbonyl)piperazin-1-yl)benzoate]",501 to 999
4,"COC(=O)c1cccc(CNC(=O)c2[nH]c3c(-c4c(C)n[nH]c4C)cccc3c2CCCOc2cc(C)c(Cl)c(C)c2)c1 [I-25, methyl 3-((3-(3-(4-chloro-3,5-dimethylphenoxy)propyl)-7-(3,5-dimethyl-1H-pyrazol-4-yl)-1H-indole-2-carboxamido)methyl)benzoate]",301 to 500
5,"Cc1cc(OCCCc2c(C(=O)NCCC(=O)NS(=O)(=O)c3ccccc3C#N)[nH]c3ccccc23)cc(C)c1Cl [I-18, 3-(3-(4-chloro-3,5-dimethylphenoxy)propyl)-N-(3-((2-cyanophenyl)sulfonamido)-3-oxopropyl)-1H-indole-2-carboxamide]",301 to 500
6,"Cc1cc(OCCCc2c(C(=O)Nc3cc(C(=O)O)cc(N(C)C)c3)[nH]c3c(-c4c(C)nn(C)c4C)c(Cl)ccc23)cc(C)c1Cl [I-215, 3-(6-chloro-3-(3-(4-chloro-3,5-dimethylphenoxy)propyl)-7-(1,3,5-trimethyl-1H-pyrazol-4-yl)-1H-indole-2-carboxamido)-5-(dimethylamino)benzoic acid]",< 50
7,"Cc1cc(OCCCc2c(C(=O)Nc3ccc(C(=O)O)c(N(C)CCN(C)C)c3)[nH]c3c(-c4c(C)nn(C)c4C)c(Cl)ccc23)cc(C)c1Cl [I-92, 4-(6-chloro-3-(3-(4-chloro-3,5-dimethylphenoxy)propyl)-7-(1,3,5-trimethyl-1H-pyrazol-4-yl)-1H-indole-2-carboxamido)-2-((2-(dimethylamino)ethyl)(methyl)amino)benzoic acid]",< 50
8,"Cc1cc(OCCCc2c3n(c4c(-c5c(C)nn(C)c5C)c(Cl)ccc24)C(C)[C@@H](C)N(Cc2ccc(C(=O)O)cn2)C3=O)cc(C)c1Cl (stereo partly drawn) [I-146, 6-(((3R)-7-chloro-10-(3-(4-chloro-3,5-dimethylphenoxy)propyl)-3,4-dimethyl-1-oxo-6-(1,3,5-trimethyl-1H-pyrazol-4-yl)-3,4-dihydropyrazino[1,2-a]indol-2(1H)-yl)methyl)nicotinic acid]",< 50
9,"Cc1cc(OCCCc2c(C(=O)Nc3cc[nH]n3)[nH]c3c(-c4c(C)nn(C)c4C)cccc23)cc(C)c1Cl [I-313, 3-(3-(4-chloro-3,5-dimethylphenoxy)propyl)-N-(1H-pyrazol-3-yl)-7-(1,3,5-trimethyl-1H-pyrazol-4-yl)-1H-indole-2-carboxamide]",501 to 999
10,"Cc1cc(OCCCc2c(C(=O)N[C@H]3CCC[C@@H](C(=O)O)C3)[nH]c3c(-c4c(C)nn(C)c4C)c(Cl)ccc23)cc(C)c1Cl [I-331, (1R,3S)-3-(6-chloro-3-(3-(4-chloro-3,5-dimethylphenoxy)propyl)-7-(1,3,5-trimethyl-1H-pyrazol-4-yl)-1H-indole-2-carboxamido)cyclohexane-1-carboxylic acid]",< 50

# Continued, values first:
row,Ki [nM],SMILES
1,< 50,"Cc1cc(OCCCc2c(C(=O)N[C@@H]3CCCN(C(=O)C(=O)O)C3)[nH]c3c(-c4c(C)nn(C)c4C)c(Cl)ccc23)cc(C)c1Cl [I-327, (R)-2-(3-(6-chloro-3-(3-(4-chloro-3,5-dimethylphenoxy)propyl)-7-(1,3,5-trimethyl-1H-pyrazol-4-yl)-1H-indole-2-carboxamido)piperidin-1-yl)-2-oxoacetic acid]"
2,< 50,"Cc1cc(OCCCc2c(C(=O)NCC(=O)NCC(=O)O)[nH]c3c(-c4c(C)nn(C)c4C)cccc23)cc(C)c1Cl [I-290, (3-(3-(4-chloro-3,5-dimethylphenoxy)propyl)-7-(1,3,5-trimethyl-1H-pyrazol-4-yl)-1H-indole-2-carbonyl)glycylglycine]"
3,< 50,"Cc1cc(OCCCc2c3n(c4c(-c5c(C)nn(C)c5C)c(Cl)ccc24)CCCN(c2cccc(C(=O)O)c2C)C3=O)cc(C)c1Cl [I-96, 3-(8-chloro-11-(3-(4-chloro-3,5-dimethylphenoxy)propyl)-1-oxo-7-(1,3,5-trimethyl-1H-pyrazol-4-yl)-4,5-dihydro-1H-[1,4]diazepino[1,2-a]indol-2(3H)-yl)-2-methylbenzoic acid]"
4,< 50,"CCn1ccc2c(N3CCCn4c(c(CCCOc5cc(C)c(Cl)c(C)c5)c5ccc(Cl)c(-c6c(C)nn(C)c6C)c54)C3=O)cc(C(=O)O)cc21 [I-249, 4-(8-chloro-11-(3-(4-chloro-3,5-dimethylphenoxy)propyl)-1-oxo-7-(1,3,5-trimethyl-1H-pyrazol-4-yl)-4,5-dihydro-1H-[1,4]diazepino[1,2-a]indol-2(3H)-yl)-1-ethyl-1H-indole-6-carboxylic acid]"
5,< 50,"Cc1cc(OCCCc2c3n(c4c(-c5c(C)nn(C)c5C)c(Cl)ccc24)C(C)[C@@H](C)N(Cc2ccc(C(=O)O)o2)C3=O)cc(C)c1Cl (stereo partly drawn) [I-147, 5-(((3R)-7-chloro-10-(3-(4-chloro-3,5-dimethylphenoxy)propyl)-3,4-dimethyl-1-oxo-6-(1,3,5-trimethyl-1H-pyrazol-4-yl)-3,4-dihydropyrazino[1,2-a]indol-2(1H)-yl)methyl)furan-2-carboxylic acid]"
6,< 50,"Cc1cc(OCCCc2c3n(c4c(-c5c(C)nn(C)c5C)c(Cl)ccc24)CCCN(c2cc(C(=O)O)cc(C(F)(F)F)c2)C3=O)cc(C)c1Cl [I-222, 3-(8-chloro-11-(3-(4-chloro-3,5-dimethylphenoxy)propyl)-1-oxo-7-(1,3,5-trimethyl-1H-pyrazol-4-yl)-4,5-dihydro-1H-[1,4]diazepino[1,2-a]indol-2(3H)-yl)-5-(trifluoromethyl)benzoic acid]"
7,< 50,"Cc1cc(OCCCc2c3n(c4c(-c5c(C)nn(C)c5C)c(Cl)ccc24)CCCN(c2cc(CN4CCN(C)CC4)cc(C(=O)O)c2)C3=O)cc(C)c1Cl [I-228, 3-(8-chloro-11-(3-(4-chloro-3,5-dimethylphenoxy)propyl)-1-oxo-7-(1,3,5-trimethyl-1H-pyrazol-4-yl)-4,5-dihydro-1H-[1,4]diazepino[1,2-a]indol-2(3H)-yl)-5-((4-methylpiperazin-1-yl)methyl)benzoic acid]"
8,< 50,"Cc1cc(OCCCc2c3n(c4c(-c5c(C)nn(C)c5C)c(Cl)ccc24)C[C@H](C)N(Cc2ccc(C(=O)O)cn2)C3=O)cc(C)c1Cl [I-137, (S)-6-((7-chloro-10-(3-(4-chloro-3,5-dimethylphenoxy)propyl)-3-methyl-1-oxo-6-(1,3,5-trimethyl-1H-pyrazol-4-yl)-3,4-dihydropyrazino[1,2-a]indol-2(1H)-yl)methyl)nicotinic acid]"
9,< 50,"Cc1cc(OCCCc2c3n(c4c(-c5c(C)nn(C)c5C)c(Cl)ccc24)C[C@@H](C)N(Cc2cccc(C(=O)O)c2)C3=O)cc(C)c1Cl [I-121, (R)-3-((7-chloro-10-(3-(4-chloro-3,5-dimethylphenoxy)propyl)-3-methyl-1-oxo-6-(1,3,5-trimethyl-1H-pyrazol-4-yl)-3,4-dihydropyrazino[1,2-a]indol-2(1H)-yl)methyl)benzoic acid]"
10,< 50,"Cc1cc(OCCCc2c(C(=O)NCc3cccc(C(=O)NS(=O)(=O)c4cccc(C#N)c4)c3)[nH]c3c(-c4c(C)nn(C)c4C)cccc23)cc(C)c1Cl [I-30, 3-(3-(4-chloro-3,5-dimethylphenoxy)propyl)-N-(3-(((3-cyanophenyl)sulfonyl)carbamoyl)benzyl)-7-(1,3,5-trimethyl-1H-pyrazol-4-yl)-1H-indole-2-carboxamide]"

# Same assay, conditions: Table 2; Ki bins given in μM; FITC-Bak or FITC-Bim peptide competition; Ki converted from IC50; read-out: Ki for Inhibition of Mcl-1
row,SMILES,Ki [nM]
1,"Cc1cc(OCCCc2c(C(=O)N3CCC(NC(=O)c4cccc(Oc5ccccc5)c4)CC3)[nH]c3ccccc23)cc(C)c1Cl [I-259, N-(1-(3-(3-(4-chloro-3,5-dimethylphenoxy)propyl)-1H-indole-2-carbonyl)piperidin-4-yl)-3-phenoxybenzamide]",1000 to 9990
2,"Cc1cc(CNC(=O)c2[nH]c3c(-c4c(C)nn(C)c4C)cccc3c2CCCOc2cc(C)c(Cl)c(C)c2)cc(OC(F)(F)F)c1 [I-265, 3-(3-(4-chloro-3,5-dimethylphenoxy)propyl)-N-(3-methyl-5-(trifluoromethoxy)benzyl)-7-(1,3,5-trimethyl-1H-pyrazol-4-yl)-1H-indole-2-carboxamide]",1000 to 9990
3,"CCOC(=O)c1ccc(CNC(=O)c2[nH]c3ccccc3c2CCCOc2cc(C)c(Cl)c(C)c2)o1 [I-56, ethyl 5-((3-(3-(4-chloro-3,5-dimethylphenoxy)propyl)-1H-indole-2-carboxamido)methyl)furan-2-carboxylate]",1000 to 9990
4,"Cc1cc(OCCCc2c(C(=O)NCc3ccc(N4CCc5ccccc5C4)nc3)[nH]c3c(-c4c(C)nn(C)c4C)cccc23)cc(C)c1Cl [I-261, 3-(3-(4-chloro-3,5-dimethylphenoxy)propyl)-N-((6-(3,4-dihydroisoquinolin-2 (1H)-yl)pyridin-3-yl)methyl)-7-(1,3,5-trimethyl-1H-pyrazol-4-yl)-1H-indole-2-carboxamide]",1000 to 9990
